We go through 17 compounds from ChEMBL document CHEMBL5236553, “Advances in the development of HIV integrase strand transfer inhibitors” (Eur J Med Chem, 2021).

A value given as a limit tells only on which side of the number the result lay.

Data set [1] deals with T1, Integrase (Human immunodeficiency virus 1, UniProt T1QYY3, G140S/Q148H). The experiment in a line: Inhibition of HIV-1 integrase RAL-resistant G140S/Q148H double mutant.
In data set [2] the target is Human immunodeficiency virus type 1 integrase (Human immunodeficiency virus 1, UniProt Q7ZJM1, H51Y/R263K). The experiment in a line: Inhibition of HIV-1 integrase DTG-resistant H51Y/R263K double mutant.
The target in data set [3] is Human immunodeficiency virus type 1 integrase (Human immunodeficiency virus 1, UniProt Q7ZJM1, G118R). The experiment in a line: Inhibition of HIV-1 integrase DTG-resistant G118R mutant.
Data set [4] concerns the target T1, Integrase. The experiment in a line: Inhibition of HIV-1 integrase G140S/Q148H double mutant.
Data set [5] concerns the target Human immunodeficiency virus type 1 integrase (Human immunodeficiency virus 1, UniProt Q7ZJM1, R263K). The data set is described as follows: Inhibition of HIV-1 integrase DTG-resistant R263K mutant.
Data set [6] relates to Human immunodeficiency virus. The data set is described as follows: Fold change in antiviral EC50 against HIV-1 harboring integrase Y143R mutant. To be noted: Human immunodeficiency virus 1.
The subject of data set [7] is Human immunodeficiency virus. The data set is described as follows: Fold change in antiviral EC50 against HIV-1 harboring integrase Q148K mutant. The following applies: Human immunodeficiency virus 1.
Data set [8] concerns Human immunodeficiency virus. The experiment in a line: Antiviral activity against HIV-1 harboring integrase E92Q mutant. The format is functional.
Data set [9] relates to Human immunodeficiency virus. The experiment in a line: Antiviral activity against HIV-1 harboring integrase M50I mutant. The format is functional, organism-based. To be noted: Human immunodeficiency virus 1.
The subject of data set [10] is Human immunodeficiency virus. The data set is described as follows: Antiviral activity against HIV-1 harboring integrase […]/N155H mutant. The following applies: Human immunodeficiency virus 1. It counts as functional, organism-based.
Data set [11] relates to Human immunodeficiency virus. The data set is described as follows: Antiviral activity against HIV-1 harboring integrase L74M mutant. The format is functional, organism-based. To be noted: Human immunodeficiency virus 1.
The test system of data set [12] is Human immunodeficiency virus. The experiment in a line: Antiviral activity against HIV-1 harboring integrase G140S/Q148H mutant. The format is functional, organism-based. To be noted: Human immunodeficiency virus 1.
The subject of data set [13] is Human immunodeficiency virus. The data set is described as follows: Antiviral activity against HIV-1 harboring integrase E138K/Q148K mutant. To be noted: Human immunodeficiency virus 1. The format is functional, organism-based.
Data set [14] concerns Human immunodeficiency virus. The data set is described as follows: Binding affinity to HIV-1 wildtype integrase DNA complex assessed as dissociative half life.
In data set [15] the target is Human immunodeficiency virus type 1 integrase (Human immunodeficiency virus 1, UniProt Q7ZJM1). The experiment in a line: Inhibition of HIV-1 integrase strand transfer activity.
Data set [16] concerns Human immunodeficiency virus. The experiment in a line: Antiviral activity against HIV-1 assessed as inhibition of HIV infection in human T cells by cell based assay. The format is functional, organism-based. The following applies: Human immunodeficiency virus 1, T-cell.
Data set [17] concerns Integrase (Human immunodeficiency virus 1). The data set is described as follows: Inhibition of HIV-1 integrase-catalyzed strand transfer.
Data set [18] in a line: Clearance in dog plasma. It counts as ADME, cell-free, Canis lupus familiaris.
Data set [19] is described as follows: Clearance in rat plasma. It counts as ADME, cell-free.
Data set [20] deals with Human immunodeficiency virus. The experiment in a line: Antiviral activity against HIV-1 harboring integrase N155H mutant. It counts as functional, organism-based. The following applies: Human immunodeficiency virus 1.
For data set [21], the system named is Human immunodeficiency virus. The data set is described as follows: Antiviral activity against HIV-1 harboring integrase Q148R mutant. To be noted: Human immunodeficiency virus 1. It counts as functional, organism-based.
The test system of data set [22] is Human immunodeficiency virus. The data set is described as follows: Antiviral activity against wild type HIV-1 integrase. The format is functional, organism-based. The following applies: Human immunodeficiency virus 1.
Data set [23] relates to Human immunodeficiency virus. The data set is described as follows: Antiviral activity against HIV-1 harboring integrase G140S/Q148H double mutant. It counts as functional, organism-based. To be noted: Human immunodeficiency virus 1.

As usually defined, the EC50 is the concentration giving half of the maximal effect. On to `O=C(NCc1c(F)cc(F)cc1F)c1cn2c(c(O)c1=O)C(=O)N1[C@H]3CC[C@H](C3)O[C@@H]1C2` [BICTEGRAVIR], for which the concentration for a half-maximal effect (EC50) is at most 5 nM in data set [1]; at most 5 nM in data set [2]; at most 5 nM in data set [3]; 3.1 nM in data set [4]; at most 5 nM in [5].
As to `CN1C(=O)c2c3c(c(O)c(=O)n2[C@]12CC[C@H]1C[C@@]12CO)C(=O)N(Cc1ccc(F)c(Cl)c1)CC3`, the fold change in data set [6] and in [7] was 1 each time. Also, the “fold change (FC)” value in [8] was determined as 1.
Regarding `C[C@@H]1CCO[C@H]2Cn3cc(C(=O)NCc4ccc(F)cc4F)c(=O)c(O)c3C(=O)N12` [DOLUTEGRAVIR], the concentration giving a half-maximal response (EC50) in [9] is 2.1 nM; in [10] it was 4 nM; in [11] it was 2.2 nM; in data set [12] it was 3.9 nM; in data set [13], 25 nM. In addition, the T1/2 in [14] was 71 h.
In general, IC50 refers to the concentration at which inhibition is half-maximal. `O=C(NCc1ccc(F)cc1F)c1cc2cccnc2n(O)c1=O`: it took 410 nM to reach half-maximal inhibition in data set [15] (IC50).
`COc1cc2c(cc1Cc1cccc(Cl)c1F)c(=O)c(C(=O)O)cn2[C@H](CO)C(C)C`: the concentration giving a half-maximal response (EC50) in data set [16] was found to be 0.9 nM.
As to `O=C(NCc1ccc(F)c(F)c1)c1c(O)c2cccnc2n(O)c1=O`, it took 400 nM to reach half-maximal inhibition in data set [15] (IC50).
Same read-out and setting: for `O=C(NCc1ccc(F)cc1F)c1cc2cccc(O)c2n(O)c1=O` the value was 1800 nM.
With `Cc1nnc(C(=O)NC(C)(C)c2nc(C(=O)NCc3ccc(F)cc3)c(O)c(=O)n2C)o1`, the “fold change (FC)” value in [8] came out at 3. In [17], half-maximal inhibition (IC50) required 10 nM.
As usually defined, the clearance is the rate of elimination divided by the concentration. Higher therefore signals a high capacity for elimination. Regarding `CC(C)n1c(C(=O)N(C)C)c2c(c(O)c1=O)C(=O)N(Cc1ccc(F)c(Cl)c1)CC2`, the results for the fold change in [6] and in [7] were 2 and 1, respectively. Further, the clearance in data set [18] was 2.2 mL/min/kg; in [19], 2.3 mL/min/kg. The “fold change (FC)” value in data set [8] is 1.
With `C[C@H](O)N1C(=O)c2c3c(c(O)c(=O)n2[C@]12CC[C@H]1C[C@H]12)C(=O)N(Cc1ccc(F)c(Cl)c1)CC3`, the fold change in data set [6] and in data set [7] was 1 throughout. Also, in [8], the “fold change (FC)” value was determined as 1.5. Also, the 50% effective concentration (EC50) in data set [20] and in data set [21] was 1.5 nM throughout.
Regarding `CC1(C)OCCn2c1nc(-c1ncc(Cc3ccc(F)cc3)[nH]1)c(O)c2=O`, the EC50 in [22] is 6 nM; in [23], 320 nM; in [20], 2 nM; in data set [21] it was 33 nM.
For `Nc1c(C(=O)NCc2ccc(F)cc2F)c(=O)n(O)c2ncc(CCCCCCO)cc12`, the EC50 in [9] was found to be 1.3 nM; in data set [10] it was 1.1 nM; in [11] it was 1.6 nM; in data set [12] it was 0.9 nM; in [13], 16 nM.
On to `O=C(NCc1ccc(F)c(F)c1)c1cc2cccnc2n(O)c1=O`, for which the IC50 in data set [15] was 170 nM.
Consider `CC1(C)OCCn2c1nc(C(=O)NCc1ccc(F)cc1)c(O)c2=O`, for which the EC50 was 3 nM in data set [22], over 8000 nM in [23], 140 nM in [20] and 300 nM in data set [21].
In turn, `O=C(NCc1ccc(F)c(Cl)c1)c1cc2cccnc2n(O)c1=O` showed an IC50 in [15] of 140 nM.
Still for that read-out and setting: for `O=C(NCc1ccc(F)cc1F)c1c(O)c2cccnc2n(O)c1=O` the value was 550 nM; for `O=C(NCc1ccc(F)c(Cl)c1)c1c(O)c2cccnc2n(O)c1=O`, 270 nM.
